Source: patent US12649750B2, “Macrocyclic compounds, compositions, and methods of using thereof” (Sionna Therapeutics Inc., priority 2022, dated 2026)

Tests used:
[1] = biological target: T1, NBD1 (Homo sapiens, UniProt P13569); experiment: Aggregation analysis using differential static light scattering (DSLS), thermal stability of NBD1 (ΔTagg); type: binding; details: ΔTagg versus DMSO control, NBD1 0.2 mg/ml
T1 construct: Purified recombinant NBD1 was produced using previously described methods; made in house
In short: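 Stabilisation is measured as the shift in aggregation onset of recombinant NBD1 (0.2 mg/ml, 2 mM ATP, 5 mM MgCl2, pH7.6) exposed to compound. Images are taken every 0.5° C. while heating at 1° C. per minute, and the inflection-point Tagg is corrected by the DMSO mean.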

[2] = biological target: T2, CFTR (Homo sapiens, UniProt P13569, DEL508-508); experiment: TECC24 AUC fold over DMSO @10 μM, CFTR-mediated transepithelial chloride transport in CF-HBE cells; type: cell-based; details: test agent AUC divided by DMSO vehicle AUC, primary CF-HBE cells, ΔF508 homozygous donor, 48 hours incubation
T2 construct: Primary human bronchial epithelial cells from a ΔF508 homozygous CF donor; host or cells: primary human bronchial epithelial cells (CF-HBE), ΔF508 homozygous donor
In short: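 ΔF508-homozygous primary bronchial epithelial cells incubated 48 h at 36.5° C with compound (10 μM) in IL-13-containing medium, then TECC24 current-clamp recording in pH 7.4 Hepes saline with benzamil 10 μM, forskolin 10 μM, then CFTR inhibitor-172 20 μM. Equivalent Cl− current AUC between forskolin and inhibitor, expressed as fold over DMSO.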

T1 sequence (P13569 423-646 limits assumed): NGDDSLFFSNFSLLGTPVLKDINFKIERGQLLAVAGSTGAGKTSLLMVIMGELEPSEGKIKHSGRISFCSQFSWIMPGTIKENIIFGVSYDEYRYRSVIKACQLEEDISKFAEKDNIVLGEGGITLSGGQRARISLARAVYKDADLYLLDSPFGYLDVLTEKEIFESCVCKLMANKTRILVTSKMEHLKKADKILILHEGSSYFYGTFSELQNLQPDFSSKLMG
T2 sequence (P13569 with tags, fused parts or gaps DEL508-508): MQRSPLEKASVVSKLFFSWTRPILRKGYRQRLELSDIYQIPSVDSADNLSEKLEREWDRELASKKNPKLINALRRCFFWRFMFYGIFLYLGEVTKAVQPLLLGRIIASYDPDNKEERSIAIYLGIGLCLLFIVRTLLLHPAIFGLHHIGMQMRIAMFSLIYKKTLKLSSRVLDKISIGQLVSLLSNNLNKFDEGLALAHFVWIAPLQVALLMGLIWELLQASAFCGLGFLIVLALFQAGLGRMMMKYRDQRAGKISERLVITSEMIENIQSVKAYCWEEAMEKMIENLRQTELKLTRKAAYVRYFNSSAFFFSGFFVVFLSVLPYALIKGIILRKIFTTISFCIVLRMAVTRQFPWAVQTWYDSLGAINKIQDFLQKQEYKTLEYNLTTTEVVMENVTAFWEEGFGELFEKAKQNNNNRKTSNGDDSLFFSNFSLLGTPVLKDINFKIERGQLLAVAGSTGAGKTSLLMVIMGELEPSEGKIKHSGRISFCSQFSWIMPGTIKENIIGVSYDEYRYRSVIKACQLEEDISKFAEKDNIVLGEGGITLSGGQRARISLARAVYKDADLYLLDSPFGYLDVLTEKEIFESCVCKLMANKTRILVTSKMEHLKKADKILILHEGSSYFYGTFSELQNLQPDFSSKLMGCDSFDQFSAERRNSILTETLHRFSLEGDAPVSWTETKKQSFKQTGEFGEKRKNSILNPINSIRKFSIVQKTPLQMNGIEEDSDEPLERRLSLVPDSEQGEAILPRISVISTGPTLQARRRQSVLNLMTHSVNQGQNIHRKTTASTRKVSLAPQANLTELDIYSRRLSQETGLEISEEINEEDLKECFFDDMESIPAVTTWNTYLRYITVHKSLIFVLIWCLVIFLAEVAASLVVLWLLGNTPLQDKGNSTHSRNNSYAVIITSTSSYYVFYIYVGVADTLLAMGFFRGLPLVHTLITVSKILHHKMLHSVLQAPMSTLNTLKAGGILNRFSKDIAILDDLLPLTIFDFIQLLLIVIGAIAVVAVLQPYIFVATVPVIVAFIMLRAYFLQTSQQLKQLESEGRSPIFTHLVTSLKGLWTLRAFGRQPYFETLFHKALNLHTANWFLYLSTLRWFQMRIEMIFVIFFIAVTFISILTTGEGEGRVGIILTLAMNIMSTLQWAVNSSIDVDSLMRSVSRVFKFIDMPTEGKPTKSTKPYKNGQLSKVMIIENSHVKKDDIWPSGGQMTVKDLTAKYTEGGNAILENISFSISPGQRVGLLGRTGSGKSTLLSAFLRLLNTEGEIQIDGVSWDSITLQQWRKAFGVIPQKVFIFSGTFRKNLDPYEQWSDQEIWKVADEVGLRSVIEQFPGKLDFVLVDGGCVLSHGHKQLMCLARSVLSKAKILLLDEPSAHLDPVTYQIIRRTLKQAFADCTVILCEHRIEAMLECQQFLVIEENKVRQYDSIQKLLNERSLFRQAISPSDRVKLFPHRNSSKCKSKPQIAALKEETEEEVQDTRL

For C[C@H](Cc1ccc(C2(C)CCCC(C)(C)CS(=O)(=O)CCc3c(c(F)cc4[nH]ccc34)Oc3ccnc(c3)-c3nc2nn3C)s1)C(=O)O (single isomer, unassigned) [Compound 246B], the “DSLS 3D (100 μM ΔT)” value [1] was “A (an ΔTagg value less than or equal to 5 °C is marked “A”)” and the “TECC (AUC, 10 μM)” value [2] was “B (a value between 12-20 is marked “B”)”.
For C[C@@H](Cc1cccc([C@@]2(C)CCCC(C)(C)CS(=O)(=O)CCc3c(c(F)cc4[nH]ccc34)[S+]([O-])c3ccc(F)c(c3)-c3nc2co3)c1)C(=O)O (single isomer, unassigned) [Compound 248A], the “DSLS 3D (100 μM ΔT)” value [1] was “C (a value greater than 10 °C and less than or equal to 25 °C is marked “C”)” and the “TECC (AUC, 10 μM)” value [2] was “C (a value between 20 and 80 is marked “C”)”.
C[C@@H](Cc1cccc([C@@]2(C)CCCC(C)(C)CS(=O)(=O)CCc3c(c(F)cc4[nH]ccc34)[S+]([O-])c3ccc(F)c(c3)-c3nc2co3)c1)C(=O)O (single isomer, unassigned) [Compound 248B] was tested, and the “DSLS 3D (100 μM ΔT)” value [1] was “C (a value greater than 10 °C and less than or equal to 25 °C is marked “C”)” and the “TECC (AUC, 10 μM)” value [2] was “A (a TECC value less than 12 is marked “A”)”.
For Cn1nc2nc1-c1cc(ccn1)[S+]([O-])c1c(F)cc3[nH]ccc3c1CCS(=O)(=O)CC(C)(C)CCC[C@]2(C)c1cccc(CC(=O)O)c1 (single isomer, unassigned) [Compound 249A], the “DSLS 3D (100 μM ΔT)” value [1] was “C (a value greater than 10 °C and less than or equal to 25 °C is marked “C”)” and the “TECC (AUC, 10 μM)” value [2] was “C (a value between 20 and 80 is marked “C”)”.
For Cn1nc2nc1-c1cc(ccn1)[S+]([O-])c1c(F)cc3[nH]ccc3c1CCS(=O)(=O)CC(C)(C)CCC[C@]2(C)c1cccc(CC(=O)O)c1 (single isomer, unassigned) [Compound 249B], the “DSLS 3D (100 μM ΔT)” value [1] was “C (a value greater than 10 °C and less than or equal to 25 °C is marked “C”)” and the “TECC (AUC, 10 μM)” value [2] was “B (a value between 12-20 is marked “B”)”.
With Cn1nc2nc1-c1cc(ccn1)[S+]([O-])c1c(F)cc3[nH]ccc3c1CCS(=O)(=O)CC(C)(C)CCC[C@]2(C)c1cccc(CCO)c1 (single isomer, unassigned) [Compound 250] the “DSLS 3D (100 μM ΔT)” value [1] was “C (a value greater than 10 °C and less than or equal to 25 °C is marked “C”)” and the “TECC (AUC, 10 μM)” value [2] was “C (a value between 20 and 80 is marked “C”)”.
C[C@@H](Cc1cccc([C@@]2(C)CCCC(C)(C)CS(=O)(=O)CCc3c(c(F)cc4[nH]ccc34)C(O)c3ccnc(c3)-c3nc2nn3C)c1)C(=O)O (single isomer, unassigned) [Compound 255A] was tested, and the “DSLS 3D (100 μM ΔT)” value [1] was “B (a value above 5 °C and less than or equal to 10 °C is marked “B”)” and the “TECC (AUC, 10 μM)” value [2] was “A (a TECC value less than 12 is marked “A”)”.
With C[C@@H](Cc1cccc([C@@]2(C)CCCC(C)(C)CS(=O)(=O)CCc3c(c(F)cc4[nH]ccc34)C(O)c3ccnc(c3)-c3nc2nn3C)c1)C(=O)O (single isomer, unassigned) [Compound 255B] the “DSLS 3D (100 μM ΔT)” value [1] was “C (a value greater than 10 °C and less than or equal to 25 °C is marked “C”)” and the “TECC (AUC, 10 μM)” value [2] was “C (a value between 20 and 80 is marked “C”)”.
Cn1nc2nc1-c1cc(ccn1)[S+]([O-])c1c(F)cc3[nH]ccc3c1CCS(=O)(=O)CC(C)(C)CCC[C@]2(C)c1cccc(CCC(=O)O)c1F (single isomer, unassigned) [Compound 260A] was tested, and the “DSLS 3D (100 μM ΔT)” value [1] was “C (a value greater than 10 °C and less than or equal to 25 °C is marked “C”)” and the “TECC (AUC, 10 μM)” value [2] was “C (a value between 20 and 80 is marked “C”)”.
For Cn1nc2nc1-c1cc(ccn1)[S+]([O-])c1c(F)cc3[nH]ccc3c1CCS(=O)(=O)CC(C)(C)CCC[C@]2(C)c1cccc(CCC(=O)O)c1F (single isomer, unassigned) [Compound 260B], the “DSLS 3D (100 μM ΔT)” value [1] was “B (a value above 5 °C and less than or equal to 10 °C is marked “B”)” and the “TECC (AUC, 10 μM)” value [2] was “A (a TECC value less than 12 is marked “A”)”.
For C[C@@H](Cc1cccc(C2(C)CCCCCS(=O)(=O)CCc3c(c(F)cc4[nH]ccc34)Oc3ccnc(c3)-c3nc2nn3C)c1)C(=O)O (single isomer, unassigned) [Compound 261A], the “DSLS 3D (100 μM ΔT)” value [1] was “C (a value greater than 10 °C and less than or equal to 25 °C is marked “C”)” and the “TECC (AUC, 10 μM)” value [2] was “C (a value between 20 and 80 is marked “C”)”.
In the case of C[C@@H](Cc1cccc(C2(C)CCCCCS(=O)(=O)CCc3c(c(F)cc4[nH]ccc34)Oc3ccnc(c3)-c3nc2nn3C)c1)C(=O)O (single isomer, unassigned) [Compound 261B], the “DSLS 3D (100 μM ΔT)” value [1] is reported as “A (an ΔTagg value less than or equal to 5 °C is marked “A”)” and the “TECC (AUC, 10 μM)” value [2] is reported as “A (a TECC value less than 12 is marked “A”)”.
For C[C@@H](O)Cc1cccc([C@@]2(C)CCCC(C)(C)CS(=O)(=O)CCc3c(c(F)cc4[nH]ccc34)[S+]([O-])c3ccc(F)c(c3)-c3nc2nn3C)c1 (single isomer, unassigned) [Compound 264], the “DSLS 3D (100 μM ΔT)” value [1] was “C (a value greater than 10 °C and less than or equal to 25 °C is marked “C”)” and the “TECC (AUC, 10 μM)” value [2] was “C (a value between 20 and 80 is marked “C”)”.
For C[C@@H](Cc1cccc(C2(C)CCCC(C)(C)CS(=O)(=O)CCc3c(c(F)cc4[nH]ccc34)Oc3ccnc(c3)-c3nc2nn3C)n1)C(=O)O (single isomer, unassigned) [Compound 266A], the “DSLS 3D (100 μM ΔT)” value [1] was “A (an ΔTagg value less than or equal to 5 °C is marked “A”)” and the “TECC (AUC, 10 μM)” value [2] was “A (a TECC value less than 12 is marked “A”)”.
In the case of C[C@@H](Cc1cccc(C2(C)CCCC(C)(C)CS(=O)(=O)CCc3c(c(F)cc4[nH]ccc34)Oc3ccnc(c3)-c3nc2nn3C)n1)C(=O)O (single isomer, unassigned) [Compound 266B], the “DSLS 3D (100 μM ΔT)” value [1] is reported as “C (a value greater than 10 °C and less than or equal to 25 °C is marked “C”)” and the “TECC (AUC, 10 μM)” value [2] is reported as “C (a value between 20 and 80 is marked “C”)”.
C[C@H](Cc1cccc([C@@]2(C)CCCC(C)(C)CS(=O)(=O)CCc3c(c(F)c(F)c4[nH]ccc34)[S+]([O-])c3ccnc(c3)-c3nc2nn3C)c1)C(=O)O (single isomer, unassigned) [Compound 269] was tested, and the “DSLS 3D (100 μM ΔT)” value [1] was “C (a value greater than 10 °C and less than or equal to 25 °C is marked “C”)” and the “TECC (AUC, 10 μM)” value [2] was “C (a value between 20 and 80 is marked “C”)”.
With Cn1nc2nc1-c1cc(ccn1)[S+]([O-])c1c(F)cc3[nH]ccc3c1CCS(=O)(=O)CC(C)(C)CCC[C@]2(C)c1cccc(CC2(C(=O)O)CC2)c1 (single isomer, unassigned) [Compound 271] the “DSLS 3D (100 μM ΔT)” value [1] was “C (a value greater than 10 °C and less than or equal to 25 °C is marked “C”)” and the “TECC (AUC, 10 μM)” value [2] was “C (a value between 20 and 80 is marked “C”)”.
For Cn1nc2nc1-c1cc(ccn1)[S+]([O-])c1c(F)c(F)c3[nH]ccc3c1CCS(=O)(=O)CC(C)(C)CCC[C@]2(C)c1cccc(CC(C)(C)C(=O)O)c1 (single isomer, unassigned) [Compound 274], the “DSLS 3D (100 μM ΔT)” value [1] was “C (a value greater than 10 °C and less than or equal to 25 °C is marked “C”)” and the “TECC (AUC, 10 μM)” value [2] was “C (a value between 20 and 80 is marked “C”)”.
In the case of Cn1nc2nc1-c1cc(ccn1)[S+]([O-])c1c(F)c(F)c3[nH]ccc3c1CCS(=O)(=O)CC(C)(C)CCC[C@]2(C)c1cccc(CCC(=O)O)c1 (single isomer, unassigned) [Compound 281], the “DSLS 3D (100 μM ΔT)” value [1] is reported as “C (a value greater than 10 °C and less than or equal to 25 °C is marked “C”)” and the “TECC (AUC, 10 μM)” value [2] is reported as “C (a value between 20 and 80 is marked “C”)”.
COCC(Cc1cccc([C@@]2(C)CCCC(C)(C)CS(=O)(=O)CCc3c(c(F)cc4[nH]ccc34)Oc3ccnc(c3)-c3nc2nn3C)c1)C(=O)O (single isomer, unassigned) [Compound 284] was tested, and the “DSLS 3D (100 μM ΔT)” value [1] was “C (a value greater than 10 °C and less than or equal to 25 °C is marked “C”)” and the “TECC (AUC, 10 μM)” value [2] was “C (a value between 20 and 80 is marked “C”)”.
